Experimental findings from patent US9695155B2, “Herbicidal substituted pyrimidinyloxy benzene compounds” (E. I. DU PONT DE NEMOURS AND COMPANY, priority 2013, dated 2017) are described below.

Each structure is given as a SMILES string.

For test [1], the system named is kochia. Nature of the test: Test A postemergence. Type of test: in vivo, Kochia scoparia. In short, it runs like this: (§1)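 Greenhouse pot test, loam/sand soil. Formulation: non-phytotoxic solvent mix plus surfactant. Pre: directed spray onto soil after sowing. Post: plants at 1–2 leaf, 2–10 cm. Rated visually vs untreated controls at ~10 d, 0 (no effect) to 100 (complete control).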

Test [2] has as its system barnyardgrass. Nature of the test: Test A postemergence. In kind it is in vivo, Echinochloa crus-galli. In short, it runs like this:
as §1

Test [3] concerns ragweed. Kind of test: Test A postemergence. In kind it is in vivo, Ambrosia elatior. In short, it runs like this: as §1
In test [4] the test system is large (Lg) crabgrass. Nature of the test: Test C postemergence. Type of test: in vivo, Digitaria sanguinalis. Put shortly:
(§2)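 Seeds were sown in loam–sand blend and sprayed preemergence, while plants at 1- to 4-leaf stage (2–18 cm) in peat-based medium received postemergence sprays; test chemicals were formulated in a non-phytotoxic solvent with surfactant. After 13–15 days in a greenhouse, injury was rated visually against controls, 0 (no effect) to 100 (complete control).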

The subject of test [5] is blackgrass. Nature of the test: Test C postemergence. Type of test: in vivo, Alopecurus myosuroides. Put shortly: as §2
In test [6] the test system is wheat. Kind of test: Test A postemergence. Type of test: in vivo, Triticum aestivum. Put shortly:
as §1

For test [7], the system named is Italian ryegrass. Kind of test: Test A postemergence. Type of test: in vivo, Lolium multiflorum. In short, it runs like this: as §1
The test system of test [8] is oilseed rape. Kind of test: Test C postemergence. Type of test: in vivo, Brassica napus. The following applies: for Oilseed Rape plant response rating: 31 g ai/ha. In short, it runs like this:
as §2

Test [9] has as its system giant foxtail. Nature of the test: Test A postemergence. In kind it is in vivo, Setaria faberii. Put shortly: as §1
Setting [10] is: 125 g ai/ha, 0 to 100 scale where 0 is no effect and 100 is complete control.
[11] abbreviates: 500 g ai/ha, 0 to 100 scale where 0 is no effect and 100 is complete control.
Setting [12] is: 16 g ai/ha, postemergence, 0 is no effect, 100 is complete control.
Where [13] appears, read: 125 g ai/ha, postemergence, visual rating, scale 0 to 100 (0 no effect, 100 complete control).
[14] abbreviates: Postemergence, 62 g ai/ha, scale 0 to 100 (0 no effect, 100 complete control).
The mark [15] stands for this setting: Postemergence, 31 g ai/ha, scale 0 to 100 (0 no effect, 100 complete control), 13 to 15 days.
Setting [16] is: 1000 g ai/ha, 0 to 100 scale, 0 no effect, 100 complete control.
[17] abbreviates: 31 g ai/ha, 0 to 100 scale, 0 no effect, 100 complete control.
Setting [18] is: 125 g ai/ha, 0 to 100 scale, 0 no effect, 100 complete control.
Setting [19] is: 31 g ai/ha, postemergence, visual rating, scale 0 to 100 (0 no effect, 100 complete control), 13 to 15 days.
The mark [20] stands for this setting: Postemergence, 62 g ai/ha, scale 0 to 100 (0 no effect, 100 complete control), 13 to 15 days.
The mark [21] stands for this setting: postemergence, visual rating, scale 0 to 100 (0 no effect, 100 complete control), 13 to 15 days.

On to `Clc1cnc(Oc2cccc(Br)c2-n2cc(I)nn2)nc1` [Compound 117], for which the “Plant response rating, Kochia” value in [1] (setting [10]) and in test [1] (setting [11]) was 100 in each case. Also, the “Plant response rating, Barnyardgrass” value in [2] (setting [10]) is given as 70; in [2] (setting [11]), 90. Moreover, the “Plant response rating, Ragweed” value in test [3] (setting [11]) came to 100. In addition, in test [4] (setting [12]), the “Plant response rating (0 to 100), Crabgrass, Large” value came to 10. Also, the “Plant response rating, Crabgrass, Large” value in test [4] (setting [13]) and in [4] (setting [14]) was 20 in each case. For the same compound, the “Plant response rating (0 to 100), Blackgrass” value in [5] (setting [12]) is recorded as 5. The “Plant response rating, Blackgrass” value in test [5] (setting [13]) was determined as 10; in [5] (setting [15]), 10; in test [5] (setting [14]), 5. The “Plant response rating, Wheat” value in test [6] (setting [11]) stood at 70. The “Plant response rating, Ryegrass, Italian” value in test [7] (setting [11]) was 90. For the same compound, the “Plant response rating (0 to 100), Oilseed Rape” value in test [8] (setting [12]) amounted to 25. In addition, the “Plant response rating, Oilseed Rape” value amounted to 70 in test [8] (setting [13]) and 60 in [8] (setting [14]). In addition, the “Plant response rating, Foxtail, Giant” value in [9] (setting [10]) and in [9] (setting [11]) was 90 each time.

`FCc1cn(-c2ccccc2Oc2ncc(Cl)cn2)nn1` [Compound 123]: the “Plant response rating, Kochia” value in test [1] (setting [16]) was 100. Further, in test [2] (setting [16]), the “Plant response rating, Barnyardgrass” value was 100. Moreover, the “Plant response rating, Ragweed” value in test [3] (setting [16]) was 100. The “Plant response rating (0 to 100), Crabgrass, Large” value in test [4] (setting [12]) is on record as 0. Further, the “Plant response rating, Crabgrass, Large” value in [4] (setting [13]) and in test [4] (setting [14]) was 5 in each case. The “Plant response rating (0 to 100), Blackgrass” value in [5] (setting [12]) came out at 0. The “Plant response rating, Blackgrass” value in test [5] (setting [13]), in [5] (setting [15]) and in test [5] (setting [14]) was 0 in each case. In addition, the “Plant response rating, Wheat” value in test [6] (setting [16]) amounted to 70. Moreover, the “Plant response rating, Ryegrass, Italian” value in [7] (setting [16]) worked out at 90. Besides, in test [8] (setting [12]), the “Plant response rating (0 to 100), Oilseed Rape” value is on record as 30. For the same compound, the “Plant response rating, Oilseed Rape” value was determined as 70 in test [8] (setting [13]) and 60 in [8] (setting [14]). The “Plant response rating, Foxtail, Giant” value in [9] (setting [16]) worked out at 90.

As for `N#Cc1cnn(-c2c(Br)cccc2Oc2ncc(Cl)cn2)c1` [Compound 140], the “Plant response rating, Kochia” value in test [1] (setting [17]) is listed as 90. In test [1] (setting [10]), the “Kochia plant response rating” value turned out to be 100. Moreover, the “Plant response rating, Barnyardgrass” value in test [2] (setting [17]) amounted to 30. Also, in [2] (setting [10]), the “Barnyardgrass plant response rating” value amounted to 70. The “Plant response rating, Ragweed” value in test [3] (setting [17]) worked out at 60. The “Ragweed plant response rating” value in [3] (setting [10]) was found to be 70. In addition, the “Plant response rating (0 to 100), Crabgrass, Large” value in test [4] (setting [12]) is listed as 10. The “Plant response rating, Crabgrass, Large” value was 20 in test [4] (setting [13]) and 15 in [4] (setting [14]). Besides, the “Plant response rating (0 to 100), Blackgrass” value in test [5] (setting [12]) is given as 0. For the same compound, the “Plant response rating, Blackgrass” value in test [5] (setting [13]) came to 5; in test [5] (setting [15]) it was 0; in test [5] (setting [14]), 0. Also, the “Plant response rating, Wheat” value in test [6] (setting [17]) is on record as 0. For the same compound, the “Wheat plant response rating” value in test [6] (setting [10]) came to 0. Also, the “Plant response rating, Ryegrass, Italian” value in test [7] (setting [17]) came out at 0. For the same compound, the “Ryegrass, Italian plant response rating” value in [7] (setting [10]) is listed as 30. The “Plant response rating (0 to 100), Oilseed Rape” value in [8] (setting [12]) came out at 5. For the same compound, the “Plant response rating, Oilseed Rape” value in [8] (setting [13]) and in [8] (setting [14]) was 50 each time. Moreover, in test [9] (setting [17]), the “Plant response rating, Foxtail, Giant” value came to 30. In addition, the “Foxtail, Giant plant response rating” value in test [9] (setting [10]) was found to be 90.

Consider `FCc1cccc(Oc2ncc(Cl)cn2)c1-n1cc(I)cn1` [Compound 245], for which the “Plant response rating, Kochia” value in [1] (setting [17]) was found to be 60; in test [1] (setting [18]), 100. In addition, the “Plant response rating, Barnyardgrass” value in test [2] (setting [17]) was 0; in test [2] (setting [18]), 30. The “Plant response rating, Ragweed” value in test [3] (setting [17]) is listed as 0; in test [3] (setting [18]), 20. The “Plant response rating (0 to 100), Crabgrass, Large” value in test [4] (setting [12]) is 5. The “Crabgrass, Large plant response rating” value in test [4] (setting [19]) was found to be 5. Also, the results for the “Plant response rating, Crabgrass, Large” value in test [4] (setting [13]) and in test [4] (setting [20]) were 15 and 10, respectively. In addition, the “Plant response rating (0 to 100), Blackgrass” value in test [5] (setting [12]) was found to be 0. In addition, the “Blackgrass plant response rating” value in test [5] (setting [19]) turned out to be 0. Also, the “Plant response rating, Blackgrass” value in [5] (setting [13]) and in test [5] (setting [20]) was 5 each time. Further, the “Plant response rating, Wheat” value in test [6] (setting [17]) is given as 20; in test [6] (setting [18]) it was 40. Further, the “Plant response rating, Ryegrass, Italian” value in test [7] (setting [17]) turned out to be 0; in test [7] (setting [18]) it was 20. The “Plant response rating (0 to 100), Oilseed Rape” value in test [8] (setting [12]) is reported as 40. The “Oilseed Rape plant response rating” value in test [8] (setting [21]) is 50. Besides, the “Plant response rating, Oilseed Rape” value in test [8] (setting [13]) was found to be 80; in test [8] (setting [20]), 50. For the same compound, the results for the “Plant response rating, Foxtail, Giant” value in test [9] (setting [17]) and in test [9] (setting [18]) were 0 and 80, respectively.

As for `Clc1cnc(Oc2ccccc2-n2cc(C3CC3)nn2)nc1` [Compound 160, 5-chloro-2-[2-(4-cyclopropyl-1H-1,2,3-triazol-1-yl)phenoxy]pyrimidine], the “Plant response rating, Kochia” value in [1] (setting [16]) stood at 100. Further, the pest or weed control at 1000 g/ha in test [2] (Echinochloa crus-galli, post-emergence, 240 h, 1000 g ai/ha, 0 to 100 scale, 0 no effect, 100 complete control, read-out: Plant response rating Barnyardgrass) turned out to be 100%; in test [9] (Setaria faberi, post-emergence, 240 h, 1000 g ai/ha, 0 to 100 scale, 0 no effect, 100 complete control, read-out: Plant response rating Foxtail, Giant), 100%. Also, the “Plant response rating, Ragweed” value in [3] (setting [16]) came out at 100. Also, the pest or weed control at 16 g/ha in [4] (Digitaria sanguinalis, post-emergence, 16 g ai/ha, postemergence, 0 is no effect, 100 is complete control, read-out: Plant response rating (0 to 100), Crabgrass, Large) worked out at 5%; in [5] (Alopecurus myosuroides, post-emergence, 16 g ai/ha, postemergence, 0 is no effect, 100 is complete control, read-out: Plant response rating (0 to 100), Blackgrass), 0%. The pest or weed control at 31 g/ha was determined as 5% in test [4] (Digitaria sanguinalis, post-emergence, 31 g ai/ha, postemergence, visual rating, scale 0 to 100 (0 no effect, 100 complete control), 13 to 15 days, read-out: Crabgrass, Large plant response rating) and 0% in test [5] (Alopecurus myosuroides, post-emergence, 31 g ai/ha, postemergence, visual rating, scale 0 to 100 (0 no effect, 100 complete control), 13 to 15 days, read-out: Blackgrass plant response rating). In addition, the pest or weed control at 125 g/ha was 10% in [4] (Digitaria sanguinalis, post-emergence, 125 g ai/ha, postemergence, visual rating, scale 0 to 100 (0 no effect, 100 complete control), read-out: Plant response rating, Crabgrass, Large) and 15% in test [5] (Alopecurus myosuroides, post-emergence, 125 g ai/ha, postemergence, visual rating, scale 0 to 100 (0 no effect, 100 complete control), read-out: Plant response rating, Blackgrass). Further, the pest or weed control at 62 g/ha amounted to 5% in test [4] (Digitaria sanguinalis, post-emergence, Postemergence, 62 g ai/ha, scale 0 to 100 (0 no effect, 100 complete control), read-out: Plant response rating, Crabgrass, Large) and 5% in test [5] (Alopecurus myosuroides, post-emergence, Postemergence, 62 g ai/ha, scale 0 to 100 (0 no effect, 100 complete control), read-out: Plant response rating, Blackgrass). Besides, the plant injury at 1000 g/ha in test [6] (Triticum aestivum, post-emergence, 240 h, 1000 g ai/ha, 0 to 100 scale, 0 no effect, 100 complete control, read-out: Plant response rating Wheat) worked out at 100%. The “Plant response rating, Ryegrass, Italian” value in test [7] (setting [16]) came out at 90. Moreover, the “Oilseed Rape plant response rating” value in test [8] (setting [21]) is given as 55. Further, in test [8] (Brassica napus, post-emergence, 16 g ai/ha, postemergence, 0 is no effect, 100 is complete control, read-out: Plant response rating (0 to 100), Oilseed Rape), the plant injury at 16 g/ha is 10%. Besides, in test [8] (Brassica napus, post-emergence, 125 g ai/ha, postemergence, visual rating, scale 0 to 100 (0 no effect, 100 complete control), read-out: Plant response rating, Oilseed Rape), the plant injury at 125 g/ha stood at 60%. For the same compound, in test [8] (Brassica napus, post-emergence, Postemergence, 62 g ai/ha, scale 0 to 100 (0 no effect, 100 complete control), read-out: Plant response rating, Oilseed Rape), the plant injury at 62 g/ha came to 60%.
